Experiment [1] relates to Planaria (Dugesia japonica). The experiment in a line: Planaria tissue regeneration after surgical injury (head resection), tissue regeneration index. It is filed as in vivo. The settings on record: for T50: either SCI or SCII alone, concentration dependent, vehicle ~5 days; for tissue regeneration / head regrowth (in words): surgically injured planaria vs vehicle. The procedure: Planaria regeneration: Planaria (Dugesia japonica; Dj) were kept in water (Poland Spring) at 18° C. All animals were starved for at least 7 days prior to experiments. Tissue regeneration was assessed as in (12). Briefly, planaria were subject to head resection post-occularly (surgical Injury). The posterior portions of the planaria were then placed in spring water containing 0.01% EtOH, SPE-C isolate fraction 2 from resolving exudates or milk at the indicated dilutions, U0126 (Extracellular signal-regulated kinases (ERK) inhibitor; Cell Signaling Technology; 25 μM (16)), U0126 plus resolving exudates SPE-C isolates fraction 2, SCI (100 nM), SCII (100 nM), lipoxygenase inhibitor (baicalein, 10 μM) or lipoxygenase inhibitor plus SCI and SCII (100 nM). The extent of tissue regeneration during a 6-day period for D. japonica was determined using captured images of the regenerating blastemas at regular intervals (24 h). These images were analyzed using ImageJ software. A tissue regeneration index (TRI) was employed that took into consideration the size of the regenerated tissue total area (A) and the post-ocular width W of the animal, where TRI=A/W. In determined experiments, planaria were injured and incubated in water, containing 10^8CFU E. coli (serotype O6:K2:H1) or with E. coli plus SCI and SCII (100 nM), and tissue regeneration indices assessed as described above.
Planaria regeneration: Planaria (Dugesia japonica) were kept in water (Poland. Spring; Nestlé Waters North America, Stamford, Conn., USA) at 18° C. All animals were starved for at least 7 d before the experiments. Tissue regeneration was assessed as described previously (10). In brief, planaria were subjected to head resection postoccularly (surgical injury). The posterior portions of the planaria were then placed in spring water containing 0.01% EtOH, 16-glutathionyl, 17-hydroxyl-4Z,7Z,10,12,14,19Z-docosahexaenoic acid plus 16-cysteinylglycinyl, 7-hydroxyl-4Z,7Z,10,12,14,19Z-docosahexaenoic acid (50 nM; each) or 8-gutathionyl, 7,17-dihydroxyl-4Z9,11,13Z,15E,19Z-docosahexaenoic acid plus 8-cysteinylglycinyl, 7,17-dihydroxyl-4Z,9,11,13Z,15E,19Z-docosahexaenoic acid (50 nM, each). The extent of tissue regeneration during a 6-d period was determined using captured images of the regenerating blastemas at regular intervals (24 h). These images were analyzed using ImageJ software (NIH, Bethesda, Md., USA). A tissue regeneration index (TRI) was used that took into consideration the size of the regenerated tissue total area (A) and the postocular width (W), where TRI=A/W (10).

Another experiment deals with Human macrophages. The experiment in a line: Human macrophage phagocytosis of fluorescently labeled E. coli. Format: cell-based. To be noted: 10 pM-100 nM, 15 min, then E. coli 45 min. The procedure: (§1) Leukocyte phagocytosis: Macrophages were prepared from peripheral blood mononuclear cells (PBMC) purchased from Children's Hospital Blood Bank, Boston, and phagocytosis was assessed as in (11). Briefly, macrophages (5×10^4 cells,/well) were incubated with SCI (10 pM-100 nM), SCII (10 pM-100 nM), MaR1 (10 pM-100 nM), or vehicle (0.1% EtOH in DPBS) for 15 min at 37° C., then fluorescent labeled apoptotic cells were added and cells incubated 45 min at 37° C. Extracellular fluorescence was quenched using Trypan blue (1:15 dilution) and phagocytosis assessed using an M3 SpectraMax plate reader. In select experiments, macrophages (5×10^4 cells/well) or neutrophils (1×10^5 cells/well) were obtained from human healthy volunteers' peripheral blood as in (11) in accordance with Partners Human Research Committee Protocol (#1999P001297), and incubated with H2DCFDA (5 μM, 30 min, 37° C.), then with SCI (10 pM-100 nM), SCI (10 pM-100 nM) or vehicle (0.1% EtOH in DPBS, 15 min, 37° C.) and E. coli (1:50 leukocytes to E. coli, 45 min, 37° C.) Intracellular reactive oxygen species were determined by measuring fluorescence using an M3 SpectraMax plate reader. To assess bacterial phagocytosis, macrophages (5×10^4 cells/well) or neutrophils (1×10^5 cells/well) were incubated with SCI (10 pM-100 nM), SCII (10 pM-100 nM) or vehicle (0.1% EtOH in DPBS, 15 min, 37° C.), then incubated with BacLight Green (Molecular Probes) labeled E. coli (1:50 leukocytes to E. coli, 45 min, 37° C.), Extracellular fluorescence was quenched using Trypan blue (1:15 dilution), and phagocytosis assessed using an M3 SpectraMax plate reader.
Macrophage phagocytosis was assessed using fluorescently labeled E. coli (serotype O6:K2;H1) with BacLight Green Bacterial Stain (Life Technologies, Eugene, Oreg., USA). E. coli [2.5×10^6 colony-forming units (CFL)/well] were then added to macrophages previously plated in 96-well plates (40 min at 37° C.) and incubated with 0.1-10 nM concentration of test compounds [15 min at 37° C. (pH 7.45)]. Fluorescence was measured on a SpectraMax M3 plate reader, and results were analyzed using SoftMax Pro.

The subject of a further experiment is Human neutrophils. The experiment in a line: Human neutrophil intracellular reactive oxygen species (H2DCFDA). It is filed as cell-based. To be noted: 10 pM-100 nM, 15 min, then E. coli 45 min. The procedure:
as §1, with “To assess bacterial phagocytosis, macrophages (5×10^4 cells/well) or neutrophils (1×10^5 cells/well) were incubated with SCI (10 pM-100 nM), SCII (10 pM-100 nM) or vehicle (0.1% EtOH in DPBS, 15 min, 37° C.), then incubated with BacLight Green (Molecular Probes) labeled E. coli (1:50 leukocytes to E. coli, 45 min, 37° C.), Extracellular fluorescence was quenched using Trypan blue (1:15 dilution), and phagocytosis assessed using an M3 SpectraMax plate reader.” left out

Experiment [2] deals with Mice (hind-limb ischemia/reperfusion). The experiment in a line: Hind-limb ischemia reperfusion, second organ reflow injury. Format: in vivo, mouse. To be noted: for protection from leukocyte-mediated tissue damage: SCI (50 ng) plus SCII (50 ng) i.v. 10 min prior to reperfusion, lung H&E; for Ki67 and RSPO3 in lung sections (immunofluorescence), tissue repair / plasma eicosanoid levels, including LTB4, LTC4 and TxB2: SCI plus SCII 50 ng each i.v. The protocol: Ischemia Reperfusion: Mice were anesthetized by intraperitoneal (i.p.) injection of […]. To initiate hind-limb ischemia, tourniquets consisting of a rubber band were placed on each hind limb. Ten min prior to the initiation of reperfusion, Vehicle (saline containing 0.1% EtOH), SCI (50 ng) plus SCII (50 ng) or Resolvin D1 (500 ng) were administered by intravenous injection. At the end of reperfusion (3 h), mice were euthanized, blood collected via cardiac puncture and plasma isolated for lipid mediator metabololipidomics. Lungs were harvested, left lungs were frozen in liquid nitrogen and stored at −80° C. Right lungs were stored in 10% (v/v) buffered formalin and processed for histology and hematoxylin and eosin (H&E) staining by the Children's Hospital Boston Core Histology Facility, imaged using a Keyence BZ-9000 microscope and BZ II imaging software (Keyence) Expression of Ki67 and Roof plate-specific Spondin-3 (RSPO3) were assessed by immunofluorescence staining. Briefly, sections were deparafinized in xylene and rehydrated, then blocked in 10% horse serum and stained with either rat anti-mouse RSPON3 antibody (R&D Systems) for 1 h at room temperature and then with sheep anti-rat Alexa-594 conjugated antibody (BioLegend), or with rabbit anti-mouse antibody (Abeam) and then with donkey anti-rabbit Alexa-488 antibody (BioLegend). Slides were mounted in Vector Shield mounting solution with DAPI (Vector Labs) and immunofluorescence assessed using a Zeiss LSM 510 Meta confocal microscope. Images were processed using ImageJ software (National Institutes of Health) and Adobe Photoshop CS6 (Adobe Systems incorporated) software. Frozen lungs were gently dispersed, centrifuged, and tissue myeloperoxidase (MPO) levels were determined using mouse MPO ELISA (R&D Systems).

Entries after “also recorded” stand apart in the source; their conditions may differ.

Consider “13-glutathionyl, 14-hydroxy-docosahexaenoic acid [SCI]”, for which, in experiment [1], the T50 was around 3.5 days and the “tissue regeneration / head regrowth (in words)” value is given as “accelerated head regrowth; also recorded: Promotes tissue”. The “macrophage phagocytosis of E. coli” value in the experiment with Human macrophages is recorded as “enhanced; also recorded: Stimulates human”. Also, in the experiment with Human neutrophils, the “neutrophil intracellular reactive oxygen species” value is “enhanced; also recorded: Stimulates human”. In experiment [2], the “protection from leukocyte-mediated tissue damage” value is on record as “Protects from neutrophil”; the “Ki67 and RSPO3 in lung sections (immunofluorescence), tissue repair” value is “Promotes tissue repair”; the “plasma eicosanoid levels, including LTB4, LTC4 and TxB2” value was “Reduces systemic”.

Consider `CCC=CCC=CCC(O)C(C=CC=CC=CCC=CCCC(=O)O)SCC(N)C(=O)NCC(=O)O` (centres unmarked) [SCII, 13-cysteinylglycinyl, 14-hydroxy-docosahexaenoic acid], for which, in experiment [1], the T50 is reported as around 3.5 days and the “tissue regeneration / head regrowth (in words)” value was “accelerated head regrowth; also recorded: Promotes tissue”. Further, the “macrophage phagocytosis of E. coli” value with Human macrophages is listed as “enhanced; also recorded: Stimulates human”. Further, in the experiment with Human neutrophils, the “neutrophil intracellular reactive oxygen species” value is “enhanced”. For the same compound, in experiment [2], the “protection from leukocyte-mediated tissue damage” value was “Protects from neutrophil”; the “Ki67 and RSPO3 in lung sections (immunofluorescence), tissue repair” value is recorded as “Promotes tissue repair”; the “plasma eicosanoid levels, including LTB4, LTC4 and TxB2” value is “Reduces systemic”.

(Values after patent US11135228B2, “Cysteinyl-proresolving mediators that promote resolution of infection and organ protection” (THE BRIGHAM AND WOMEN'S HOSPITAL, priority 2014, dated 2021).)
